Legend:
MC38 tumors = experiment: MC38 syngeneic model, efficacy and re-challenge; format: in vivo, mouse; settings: for Live Animal at Day 50: N 8
Experimental: 8 weeks old female C57B/J6J mice were implanted subcutaneously at the right flank with 3×10^5 MC38 mouse colon cancer cells. Mice were randomized into different treatment groups (see above) when tumors grew to an average mean tumor size of 50-80 mm^3. Tumor size was measured three times weekly in two dimensions using a caliper, and the volume was expressed in mm^3 using the formula: V=0.5a×b^2 where a and b are the long and short diameters of the tumor, respectively. Mice were monitored daily for clinical signs and body weights were measured twice per week. All groups tolerated drug treatments very well with less than 10% body weight loss. […] Scabs formed near the site of IT injection and the skin recovered with minimal scaring within 3-4 weeks.
For the efficacy portion of the study, the major endpoint was the animal survival, defined as time to death or euthanasia when tumors ≥2000 mm^3. The survive rate is the proportion of live animals in each group on a given day. A Kaplan-Meier analysis was performed to compare animal survival between vehicle and treated groups. P<0.05 was considered to be statistically significant. Another endpoint is tumor clearance, for which the mice were monitor for over 50 days after the start of the treatment.
To test if anti-tumor immunity was developed in the cured mice, the re-challenge portion of the study was conducted. The major endpoint was the tumor initiation of the re-implanted tumor cells. Tumor fee survive rate is the proportion of tumor fee mice and the mice whose tumor volumes were below 50 mm^3 in each group on a given day. A Mann-Whitney method was performed to analyze the tumor initiation rate at the end of the re-challenge study and P<0.05 was considered to be statistically significant.
MC38 cells (3×10^5) were re-implanted subcutaneously to the other flank (left flank) of the 8 tumor-eradicated mice (two from group 2, three each from groups 3 and 5). No MC38 tumors formed after 36 days in these 8 tumor-eradicated mice. To study the anti-tumor immunity further in the 8 tumor-eradicated mice, MC38 cells (3×10^5) and unrelated 3LL cells (lung cancer) (2×10^6) were re-implanted and implanted at opposite flanks in these mice. As control, five age-matched naïve mice were implanted with 3LL and MC38 tumor cells at opposite flanks. The re-challenge for control and K1K1-C1348101 groups were performed independently, but with same method and condition.

4T1-luc2 tumor = experiment: 4T1-luc2 orthotopic breast cancer metastasis model, IT injection; format: in vivo, mouse
Excerpt: Syngeneic mouse models are frequently used in assessing effect of immune-modulating compounds because both innate and adaptive immune systems are intact in the wild-type mouse strains.
Each 6-8 weeks old female Balb/c mouse was surgically implanted with 1×10^6 4T1-luc2 tumor cells in the abdominal 4th right mammary fat pad for tumor development. The animals were randomized and treatments were started when the average tumor volume reached 86 mm^3. The group assignment, treatment dose, and schedule were as follows:
Mice were monitored daily for clinical signs and body weights were measured regularly as an indirect measure of toxicity. […] .
After grouping, the bioluminescence measurements were taken once per week to monitor tumor growth in the fat pads and metastasis to other organs. Briefly, the mice were weighted and intra-peritoneal injected with luciferin at 150 mg/kg. 10 minutes after the luciferin administration, the animals were pre-anesthetized with the mixture gas of oxygen and isoflurane. The animals were moved into the imaging chamber for bioluminescence measurements with IVIS (Lumina II) in a complete anesthetic state. […] The bioluminescence signal decreased to the baseline range from the third week in three animals. These three animals were monitored for 87 days and their primary tumors were cured without any metastasis (FIG. 9B-9D). […] However, all tumors in the vehicle group mice kept growing, had steady increase in the bioluminescence signals, and had metastasized before mice died before day 40. A Kaplan-Meier method was used to analyze the animal survival rate between the vehicle group (n=12) and the treated group (n=11, one animal died unexpectedly due to animal attacking). The median survival day is 35.5 for the vehicle group and is 42 for the treated group (P<0.05).

[1] = re-challenge of 8 tumor-eradicated mice with 3LL cells
[2] = re-challenge of 8 tumor-eradicated mice with MC38 cells

CC1=C[C@H]2[C@@]3(O)[C@H](C)C[C@]4(OC(=O)[C@H](N)CCCCCCc5ccccc5)[C@H]([C@@H]3C=C(CO)C[C@]2(O)C1=O)C4(C)C
complete eradication of tumors (MC38 tumors; group 2 (5 mg/ml), 2 out of 8 tumors): 25% | % Increased Survival Time (MC38 tumors; group 2: 5 mg/ml, 20 μl it): 45% | Increased Survival Time (MC38 tumors; group 2: 5 mg/ml, 20 μl it): 9 days | Median (MC38 tumors; group 2: 5 mg/ml, 20 μl it): 29 days | Live Animal at Day 50 (MC38 tumors; group 2: 5 mg/ml, 20 μl it, D 0,1,2,7,8,9): 2 | complete eradication of tumors (MC38 tumors; group 3 (20 mg/ml), 3 out of 8 tumors): 37.5% | % Increased Survival Time (MC38 tumors; group 3: 20 mg/ml, 20 μl): 23% | Increased Survival Time (MC38 tumors; group 3: 20 mg/ml, 20 μl): 4.5 days | Median (MC38 tumors; group 3: 20 mg/ml, 20 μl): 24.5 days | Live Animal at Day 50 (MC38 tumors; group 3: 20 mg/ml, 20 μl, D 0,1,2): 3 | Tumor initiation (mice) (MC38 tumors; [1]): 8 | Tumor-free (mice) (MC38 tumors; [1]): 0 | Tumor initiation (mice) (MC38 tumors; [2]): 0 | Tumor-free (mice) (MC38 tumors; [2]): 8 | mean body weight loss (4T1-luc2 tumor; 20 mg/ml, 20 μl (400 μg) IT, Balb/c mice): less than 10% | median survival day (4T1-luc2 tumor; 20 mg/ml, 20 μl (400 μg) IT, n=11): 42 days | animals with primary tumors cured without any metastasis (4T1-luc2 tumor; monitored for 87 days, single IT treatment): three
